According to patent US20170172994A1, “COMPOSITIONS AND METHODS FOR TREATING BACTERIAL INFECTIONS” (WOCKHARDT LIMITED, priority 2013, published 2017):
Where two headings read alike, the source gives them in different places.

Key:
[1] = test system: ESBL enzymes from K. pneumoniae S48 producing Metalo betalactamase (NDM4) and Class A (CTX-M, SHV, TEM) beta-lactamase; assay: Beta-lactamase stability study (crude enzyme extract, then drug diffusion assay on E. coli ATCC 25922); type: biochemical; conditions: for Inhibition zone diameter after treatment with beta-lactamase enzyme: 40 μg/ml, zone on E. coli ATCC 25922
Procedure: (§1) Next, the beta-lactamase stability of some of these compounds was evaluated. In a typical stability study, ESBL enzymes from K. pneumoniae S48 producing Metalo betalactamase (NDM4) and Class A (CTX-M, SHV, TEM) beta-lactamase were isolated from freshly grown culture by 5 repetitive cycles of freeze and thaw in liquid nitrogen. […] After the stipulated incubation duration, the test compounds were extracted from the reaction mixture by the addition of 0.5 ml of Acetonitrile in 1:1 ratio (final concentration of test compound—40 μg/ml) and centrifuged at 12000 rpm for 2 min to separate precipitated protein. The activity of test compounds was measured from the supernatant by performing microbiological drug diffusion assay. For drug diffusion assay, Muller-Hinton Agar (MHA) seeded with E. coli ATCC 25922 was poured on to a bioassay plate placed on a flat surface and allowed to solidify. Appropriate concentration of the standalone and enzyme treated test compound dilutions were added to 6 mm wells cut with the help of a borer. The antibacterial activity of the test compounds was measured in terms of zones of inhibition appearing after 18-24 hours of incubation at 37° C. Measurement of diameter of zone of inhibition was undertaken to the nearest whole value with the help of ruler.

P. mirabilis G 186 = assay: Minimum filamentation / spheroplasting concentration; conditions: P. mirabilis G 186 (NDM, TEM); minimum spheroplasting concentration
Source text: The term “MSC” as used herein refers to minimum spheroplasting concentration, which is the minimum concentration of an antibacterial agent at which about 80% of bacterial cells covert into spheroplasts.
The term “MFC” as used herein refers to minimum filamentation concentration, which is the minimum concentration of an antibacterial agent at which about 80% of bacterial cells get elongated to form filament like structures.

E. coli ATCC 25922 [2] = assay: Microbiological drug diffusion assay, standalone compounds in absence of beta-lactamase enzymes; type: cell-based; conditions: Escherichia coli, ATCC25922, 40 μg/ml, no beta-lactamase, read-out: Inhibition zone diameter
Procedure: as §1

P. aeruginosa PAO1 = assay: Time kill study (viability count); type: cell-based; conditions: for Bacterial count: Compound of Formula (III) 4 μg/ml, alone or combined
Procedure: (§2) The antibacterial effectiveness of various antibacterial agents in presence of a compound of Formula (III) was investigated and the results are detailed below. In a typical study, overnight cultures in Trypticase soya broth (TSB) were brought to log phase by 1 in 10 dilution in fresh cation adjusted Mueller Hinton Broth (MHB) and incubation for 2.5 hours at 35° C. in orbital shaker. Log phase cultures were diluted to desired inoculums in flasks with MHB, containing various drug concentrations. Flasks were incubated at 35° C. in orbital shaker with rotational speed of 125 rpm. Viability count was determined by 1 in 10 serial dilutions of samples in normal saline and surface spreading of 10 μl of dilutions in duplicate on Trypticase soya agar plates. Plates were incubated for 24 hours at 35° C. and colonies were enumerated to determine the colony forming units (CFU) per ml volume.

[3] = test system: Pseudomonas aeruginosa NCTC 13437 producing carbapenem hydrolyzing MBL (VIM 10) & Class A (VEB1); assay: Time kill study (viability count); type: cell-based; conditions: Cefepime 8 μg/ml, Compound of Formula (III) 8 μg/ml, Imipenem 16 μg/ml
Procedure: as §2

[4] = test system: Acinetobacter baumannii NCTC 13304 producing carbapenem hydrolyzing Class D OXA enzyme (OXA 27); assay: Time kill study (viability count); type: cell-based; conditions: Cefepime 8 μg/ml, Compound of Formula (III) 8 μg/ml, Imipenem 16 μg/ml
Procedure: as §2

E. coli ATCC 25922 [5] = assay: Time kill study (viability count); type: cell-based; conditions: for Bacterial count: Compound of Formula (III) 2 μg/ml, alone or combined
Procedure: as §2

Pseudomonas PBP 3 = target: T1, Pseudomonas PBP 3 (Pseudomonas aeruginosa, UniProt G3XD46); assay: biochemical; type: binding
T1 construct: endogenous in cells
Procedure: The phrase “selective and high affinity PBP binder” refers to a PBP binder which binds to only one PBP with very high affinity. In general, the term “selective and high affinity PBP binder” also includes those binders where a substantial fraction of binder selectively binds to only one PBP with high affinity.
The reaction mixtures were then denatured with 20 μl each of SDS-denaturing solution at 100° C. for 3 min PBPs were separated through 10% SDS polyacrylamide gel electrophoresis (Bio-Rad Laboratories, Hercules, Calif.). The protein gels were rinsed in water immediately after electrophoresis.

T1 sequence (G3XD46 whole entry): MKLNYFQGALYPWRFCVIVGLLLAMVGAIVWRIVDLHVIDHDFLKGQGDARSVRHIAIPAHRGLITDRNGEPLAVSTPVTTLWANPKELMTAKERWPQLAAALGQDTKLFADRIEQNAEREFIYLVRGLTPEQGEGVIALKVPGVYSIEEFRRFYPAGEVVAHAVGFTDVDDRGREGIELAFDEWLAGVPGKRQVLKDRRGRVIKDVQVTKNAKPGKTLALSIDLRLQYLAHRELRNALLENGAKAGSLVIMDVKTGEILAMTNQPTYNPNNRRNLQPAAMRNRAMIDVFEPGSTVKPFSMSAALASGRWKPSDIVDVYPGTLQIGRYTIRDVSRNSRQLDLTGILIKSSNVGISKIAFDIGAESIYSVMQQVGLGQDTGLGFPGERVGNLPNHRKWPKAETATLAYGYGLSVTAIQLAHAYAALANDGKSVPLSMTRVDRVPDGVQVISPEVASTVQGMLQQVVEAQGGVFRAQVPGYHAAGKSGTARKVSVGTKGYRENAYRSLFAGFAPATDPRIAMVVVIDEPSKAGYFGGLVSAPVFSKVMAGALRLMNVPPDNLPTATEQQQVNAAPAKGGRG

Compound: O=C(NNC(=O)[C@@H]1CC[C@@H]2CN1C(=O)N2OS(=O)(=O)O)[C@@H]1CCCNC1 [Compound of Formula (III), trans-(2S,5R)-sulfuric acid mono-[2-(N′—[(R)-piperidin-3-carbonyl]-hydrazino Carbonyl)-7-oxo-1,6-diaza-bicyclo[3.2.1]oct-6-yl] Ester]
- Inhibition zone diameter after treatment with beta-lactamase enzyme ([1]; 0 hour incubation at 37° C.): 16 mm
- Inhibition zone diameter after treatment with beta-lactamase enzyme ([1]; 1 hour incubation at 37° C.): 16 mm
- Inhibition zone diameter after treatment with beta-lactamase enzyme ([1]; 2 hours incubation at 37° C.): 16 mm
- Inhibition zone diameter after treatment with beta-lactamase enzyme ([1]; 24 hours incubation at 37° C.): 16 mm
- Stability to beta-lactamase (in words) ([1]; carbapenem hydrolyzing metallo beta-lactamase, up to 24 hours): stable and not inactivated by the beta-lactamase
- MSC (P. mirabilis G 186): 0.25 µg/mL
- zone of inhibition at 40 µg/mL (E. coli ATCC 25922 [2]; 0 hour): 16 mm
- zone of inhibition at 40 µg/mL (E. coli ATCC 25922 [2]; 1 hour): 16 mm
- zone of inhibition at 40 µg/mL (E. coli ATCC 25922 [2]; 2 hours): 16 mm
- zone of inhibition at 40 µg/mL (E. coli ATCC 25922 [2]; 24 hours): 16 mm
- Bacterial count (P. aeruginosa PAO1; 0 hour, Aztreonam 2 μg/ml): 5.74 log (CFU/ml)
- Bacterial count (P. aeruginosa PAO1; 0 hour, Cefsulodin 2 μg/ml): 6.81 log (CFU/ml)
- Bacterial count (P. aeruginosa PAO1; 2 hours, Aztreonam 2 μg/ml): 6.5 log (CFU/ml)
- Bacterial count (P. aeruginosa PAO1; 2 hours, Cefsulodin 2 μg/ml): 7.23 log (CFU/ml)
- Bacterial count (P. aeruginosa PAO1; 4 hours, Aztreonam 2 μg/ml): 7.6 log (CFU/ml)
- Bacterial count (P. aeruginosa PAO1; 4 hours, Cefsulodin 2 μg/ml): 7.18 log (CFU/ml)
- Bacterial count (P. aeruginosa PAO1; 6 hours, Aztreonam 2 μg/ml): 7.9 log (CFU/ml)
- Bacterial count (P. aeruginosa PAO1; 6 hours, Cefsulodin 2 μg/ml): 7.5 log (CFU/ml)
- Bacterial count (P. aeruginosa PAO1; 24 hours, Aztreonam 2 μg/ml): 8.8 log (CFU/ml)
- Bacterial count (P. aeruginosa PAO1; 24 hours, Cefsulodin 2 μg/ml): 8.2 log (CFU/ml)
- Bactericidal action (in words) (P. aeruginosa PAO1; P. aeruginosa PAO1, standalone or combination, Tables 6 and 7): did not exhibit any bactericidal action
- Bacterial count ([3]; 0 hour): 6.0 log (CFU/ml)
- Bacterial count ([3]; 2 hours): 6.55 log (CFU/ml)
- Bacterial count ([3]; 4 hours): 5.9 log (CFU/ml)
- Bacterial count ([3]; 6 hours): 5.81 log (CFU/ml)
- Bacterial count ([3]; 12 hours): 6.2 log (CFU/ml)
- Bacterial count ([4]; 0 hour): 6.3 log (CFU/ml)
- Bacterial count ([4]; 2 hours): 7.5 log (CFU/ml)
- Bacterial count ([4]; 4 hours): 7.9 log (CFU/ml)
- Bacterial count ([4]; 6 hours): 8.1 log (CFU/ml)
- Bacterial count ([4]; 8 hours): 8.1 log (CFU/ml)
- Bacterial count (E. coli ATCC 25922 [5]; 0 hour, Aztreonam 1 μg/ml): 7.47 log (CFU/ml)
- Bacterial count (E. coli ATCC 25922 [5]; 0 hour, Cefoxitin 1 μg/ml): 7.47 log (CFU/ml)
- Bacterial count (E. coli ATCC 25922 [5]; 0 hour, Cefsulodin 16 μg/ml): 7.47 log (CFU/ml)
- Bacterial count (E. coli ATCC 25922 [5]; 2 hours, Aztreonam 1 μg/ml): 7.85 log (CFU/ml)
- Bacterial count (E. coli ATCC 25922 [5]; 2 hours, Cefoxitin 1 μg/ml): 7.85 log (CFU/ml)
- Bacterial count (E. coli ATCC 25922 [5]; 2 hours, Cefsulodin 16 μg/ml): 7.85 log (CFU/ml)
- Bacterial count (E. coli ATCC 25922 [5]; 4 hours, Aztreonam 1 μg/ml): 7.88 log (CFU/ml)
- Bacterial count (E. coli ATCC 25922 [5]; 4 hours, Cefoxitin 1 μg/ml): 7.88 log (CFU/ml)
- Bacterial count (E. coli ATCC 25922 [5]; 4 hours, Cefsulodin 16 μg/ml): 7.88 log (CFU/ml)
- Bacterial count (E. coli ATCC 25922 [5]; 6 hours, Aztreonam 1 μg/ml): 8.26 log (CFU/ml)
- Bacterial count (E. coli ATCC 25922 [5]; 6 hours, Cefoxitin 1 μg/ml): 8.26 log (CFU/ml)
- Bacterial count (E. coli ATCC 25922 [5]; 6 hours, Cefsulodin 16 μg/ml): 8.26 log (CFU/ml)
- Bacterial count (E. coli ATCC 25922 [5]; 24 hours, Aztreonam 1 μg/ml): 8.34 log (CFU/ml)
- Bacterial count (E. coli ATCC 25922 [5]; 24 hours, Cefoxitin 1 μg/ml): 8.34 log (CFU/ml)
- Bacterial count (E. coli ATCC 25922 [5]; 24 hours, Cefsulodin 16 μg/ml): 8.34 log (CFU/ml)
- Bactericidal action (in words) (E. coli ATCC 25922 [5]; E. coli ATCC 25922, standalone or combination, Tables 3 to 5): did not exhibit any significant bactericidal action
- IC50 (Pseudomonas PBP 3): > 10.2 µM
